Data published in US20250275959A1, “COMPOUNDS AND METHODS OF THEIR USE” (LEXICON PHARMACEUTICALS, INC., priority 2024, published 2025).

Molecular target: hACSL5 (Homo sapiens (Human), UniProt Q9ULC5)
Assay: Human ACSL5 coupled enzyme Amplex Red assay
Type: biochemical
Conditions: read-out: hACSL5 IC50
Description: Human ACSL5 (33-683) was cloned with a C-terminal 6 His tag and expressed in insect cells (sf9) as per standard insect cell expression protocols. Human ACSL5 was enriched by affinity nickel affinity chromatography followed by Superdex S200 gel filtration column equilibrated in 20 mM HEPES pH 7.8, 500 mM NaCl, 1 mM TCEP, 5% glycerol, 0.1% Triton X^100.
Inhibition of ACSL5 enzyme activity was monitored with a coupled enzyme Amplex Red assay.
The assay is carried out in 384-well microtiterplates. In a total volume of […], compounds are preincubated with 20 nM ACSL5, in a buffer containing 150 mM MOPS-NaOH, 12 mM MgCl2, 0.03% (v/v) Triton X-100, 2.79 U mL-1 Peroxidase and 24 U mL-1 Acyl-CoA Oxidase (pH 7.6). The reaction is started by the addition of substrate and co factors (25 μM oleate, 30 μM CoA, 1 mM ATP and 50 μM Amplex Red) and the fluorescence detected after 10 minutes at 25° C. with a fluorescence reader (BMG-Fluostar; BMG-Technologies) using an excitation wavelength of 535 nm and an emission wavelength of 590 nm.
Concentration-response titration points for each compound tested were filled to the Hill equation yielding concentrations of half maximal inhibition […] and maximal inhibition values.

hACSL5, sequence (Q9ULC5 33-683): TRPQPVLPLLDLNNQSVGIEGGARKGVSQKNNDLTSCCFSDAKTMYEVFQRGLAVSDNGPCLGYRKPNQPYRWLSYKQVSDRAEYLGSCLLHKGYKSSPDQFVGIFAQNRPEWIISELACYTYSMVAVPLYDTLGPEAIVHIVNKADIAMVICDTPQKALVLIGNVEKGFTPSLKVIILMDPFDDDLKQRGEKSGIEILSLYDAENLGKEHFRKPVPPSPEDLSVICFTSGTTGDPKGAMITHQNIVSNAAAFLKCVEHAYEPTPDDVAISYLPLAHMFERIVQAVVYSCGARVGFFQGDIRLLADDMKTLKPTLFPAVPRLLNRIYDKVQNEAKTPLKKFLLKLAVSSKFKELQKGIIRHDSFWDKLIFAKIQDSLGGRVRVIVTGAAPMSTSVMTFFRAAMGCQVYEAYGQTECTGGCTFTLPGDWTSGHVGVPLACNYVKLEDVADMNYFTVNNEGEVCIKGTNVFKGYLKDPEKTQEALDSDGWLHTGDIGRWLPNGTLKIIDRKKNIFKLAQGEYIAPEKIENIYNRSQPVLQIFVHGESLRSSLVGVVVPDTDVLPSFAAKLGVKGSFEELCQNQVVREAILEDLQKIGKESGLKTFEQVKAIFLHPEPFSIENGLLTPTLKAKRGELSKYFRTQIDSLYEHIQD

| Compound | IC50 |
| --- | --- |
| NCc1ccc(S(=O)(=O)NC(=O)c2ccc(OCc3ccc(Oc4ccccc4)cc3)c(F)c2F)cc1 [N-((4-(aminomethyl)phenyl)sulfonyl)-2,3-difluoro-4-((4-phenoxybenzyl)oxy)benzamide] | > 500 nM |
| CC[C@@H](Oc1ccc(C(=O)NS(=O)(=O)N2CCC(OC3CN(C)C3)CC2)c(F)c1F)c1ccc(OCC2CC2)cn1 [(R)-4-(1-(5-(cyclopropylmethoxy)pyridin-2-yl)propoxy)-2,3-difluoro-N-((4-((1-methylazetidin-3-yl)oxy)piperidin-1-yl)sulfonyl)benzamide] | 100 to 500 nM |
| NCCc1ccc(S(=O)(=O)NC(=O)c2ccc(OCc3cccc(Oc4ccccc4)c3)c(F)c2F)cc1 [N-((4-(2-aminoethyl)phenyl)sulfonyl)-2,3-difluoro-4-((3-phenoxybenzyl)oxy)benzamide] | 100 to 500 nM |
| CC(Oc1ccc(C(=O)NS(=O)(=O)CCN)c(Cl)c1Cl)c1cccc(Oc2ccccc2)c1 (racemic) [rac-(R)-N-((2-aminoethyl)sulfonyl)-2,3-dichloro-4-(1-(3-phenoxyphenyl)ethoxy)benzamide] | > 500 nM |
| CC[C@@H](Oc1ccc(C(=O)NS(=O)(=O)N2CCN(CC)CC2)cc1C(F)(F)F)c1ccc(OC2CC(OC)C2)cn1 (stereo partly drawn) [N-((4-ethylpiperazin-1-yl)sulfonyl)-4-((R)-1-(5-((1R,3R)-3-methoxycyclobutoxy)pyridin-2-yl)propoxy)-3-(trifluoromethyl)benzamide] | 100 to 500 nM |
| CC[C@@H](Oc1ccc(C(=O)NS(=O)(=O)N2CC3=C(CN(C)C3)C2)c(F)c1F)c1ccc(OCC2CC2)cn1 [(R)-4-(1-(5-(cyclopropylmethoxy)pyridin-2-yl)propoxy)-2,3-difluoro-N-((5-methyl-3,4,5,6-tetrahydropyrrolo[3,4-c]pyrrol-2(1H)-yl)sulfonyl)benzamide] | 100 to 500 nM |
| CC[C@@H](Oc1ccc(C(=O)NS(=O)(=O)N2CCC(OCCN3CCCC3)CC2)c(F)c1F)c1ccc(OCC2CC2)cn1 [(R)-4-(1-(5-(cyclopropylmethoxy)pyridin-2-yl)propoxy)-2,3-difluoro-N-((4-(2-(pyrrolidin-1-yl)ethoxy)piperidin-1-yl)sulfonyl)benzamide] | 100 to 500 nM |
| CC(Oc1ccc(C(=O)NS(=O)(=O)c2ccc(CN)cc2)cc1C(F)(F)F)c1cccc(Oc2cnn(C)c2)c1 (stereo not shown) [N-((4-(aminomethyl)phenyl)sulfonyl)-4-(1-(3-((1-methyl-1H-pyrazol-4-yl)oxy)phenyl)ethoxy)-3-(trifluoromethyl)benzamide] | > 500 nM |
| CCOc1ccc(C(CC)Oc2ccc(C(=O)NS(=O)(=O)CCCN3CCOCC3)cc2C(F)(F)F)nc1 (stereo not shown) [4-(1-(5-ethoxypyridin-2-yl)propoxy)-N-((3-morpholinopropyl)sulfonyl)-3-(trifluoromethyl)benzamide] | 100 to 500 nM |
| CC(Oc1ccc(C(=O)NS(=O)(=O)CCCN2CCOCC2)cc1C(F)(F)F)c1ccc(Oc2cccnn2)cn1 (stereo not shown) [N-((3-morpholinopropyl)sulfonyl)-4-(1-(5-(pyridazin-3-yloxy)pyridin-2-yl)ethoxy)-3-(trifluoromethyl)benzamide] | 100 to 500 nM |
| CCOc1ccc(C(C)Oc2ccc(C(=O)NS(=O)(=O)N3CCN(C)CC3)c(F)c2F)nc1 (stereo not shown) [4-(1-(5-ethoxypyridin-2-yl)ethoxy)-2,3-difluoro-N-((4-methylpiperazin-1-yl)sulfonyl)benzamide] | > 500 nM |
| CC[C@@H](Oc1ccc(C(=O)NS(=O)(=O)N2CCN(C)CC2)c(F)c1F)c1cc(OC2CC(OC)C2)ccn1 (stereo partly drawn) [2,3-difluoro-4-((R)-1-(4-((1R,3R)-3-methoxycyclobutoxy)pyridin-2-yl)propoxy)-N-((4-methylpiperazin-1-yl)sulfonyl)benzamide] | > 500 nM |
| CC[C@@H](Oc1ccc(C(=O)NS(=O)(=O)N2CCC(OC3CCN(C)CC3)CC2)c(F)c1F)c1cc(OC2CC(OC)C2)ccn1 (stereo partly drawn) [2,3-difluoro-4-((R)-1-(4-((1R,3R)-3-methoxycyclobutoxy)pyridin-2-yl)propoxy)-N-((4-((1-methylpiperidin-4-yl)oxy)piperidin-1-yl)sulfonyl)benzamide] | > 500 nM |
| CC(Oc1ccc(C(=O)NS(=O)(=O)c2ccc(CN)cc2)cc1C(F)(F)F)c1cccc(OCC2CCCC2)c1 (stereo not shown) [N-((4-(aminomethyl)phenyl)sulfonyl)-4-(1-(3-(cyclopentylmethoxy)phenyl)ethoxy)-3-(trifluoromethyl)benzamide] | > 500 nM |
| CC[C@@H](Oc1ccc(C(=O)NS(=O)(=O)N2CC3CCC(C2)N3C)c(F)c1F)c1ccc(Oc2ccccn2)cn1 [2,3-difluoro-N-((8-methyl-3,8-diazabicyclo[3.2.1]octan-3-yl)sulfonyl)-4-((R)-1-(5-(pyridin-2-yloxy)pyridin-2-yl)propoxy)benzamide] | < 100 nM |
| CC(Oc1ccc(C(=O)NS(=O)(=O)c2ccc(CN)cc2)c(F)c1F)c1cccc(OC2CCCC2)c1 (stereo not shown) [N-((4-(aminomethyl)phenyl)sulfonyl)-4-(1-(3-(cyclopentyloxy)phenyl)ethoxy)-2,3-difluorobenzamide] | 100 to 500 nM |
| CCOc1ccc(C(C)Oc2ccc(C(=O)NS(=O)(=O)C3CCNCC3)c(F)c2F)nc1 (stereo not shown) [4-(1-(5-ethoxypyridin-2-yl)ethoxy)-2,3-difluoro-N-(piperidin-4-ylsulfonyl)benzamide] | > 500 nM |
| CC(Oc1ccc(C(=O)NS(=O)(=O)CCN)c(Cl)c1Cl)c1cccc(Oc2ccccc2)c1 (stereo not shown) [N-((2-aminoethyl)sulfonyl)-2,3-dichloro-4-(1-(3-phenoxyphenyl)ethoxy)benzamide] | 100 to 500 nM |
| CC(Oc1ccc(C(=O)NS(=O)(=O)c2ccc(CN)cc2)cc1C(F)(F)F)c1cccc(OC2CCCC2)c1 (stereo not shown) [N-((4-(aminomethyl)phenyl)sulfonyl)-4-(1-(3-(cyclopentyloxy)phenyl)ethoxy)-3-(trifluoromethyl)benzamide] | > 500 nM |
| CC[C@@H](Oc1ccc(C(=O)NS(=O)(=O)c2ccc(O[C@@H]3CCCN(C)C3)cc2)c(F)c1F)c1ccc(OCC2CC2)cn1 [4-((R)-1-(5-(cyclopropylmethoxy)pyridin-2-yl)propoxy)-2,3-difluoro-N-((4-(((R)-1-methylpiperidin-3-yl)oxy)phenyl)sulfonyl)benzamide] | 100 to 500 nM |

Second part, the molecule after the results:

| IC50 | Compound |
| --- | --- |
| < 100 nM | CC[C@@H](Oc1ccc(C(=O)NS(=O)(=O)N2CCC(OC3CN(C)C3)CC2)c(F)c1F)c1ccc(Oc2ccccn2)cn1 [(R)-2,3-difluoro-N-((4-((1-methylazetidin-3-yl)oxy)piperidin-1-yl)sulfonyl)-4-(1-(5-(pyridin-2-yloxy)pyridin-2-yl)propoxy)benzamide] |
| < 100 nM | CC(Oc1ccc(C(=O)NS(=O)(=O)c2ccc(CN)cc2)c(F)c1F)c1cccc(Oc2cccnc2)c1 (stereo not shown) [N-((4-(aminomethyl)phenyl)sulfonyl)-2,3-difluoro-4-(1-(3-(pyridin-3-yloxy)phenyl)ethoxy)benzamide] |
| < 100 nM | CC(Oc1ccc(C(=O)NS(=O)(=O)c2ccc(CN)cc2)cc1C(F)(F)F)c1cccc(Oc2cnccn2)c1 (stereo not shown) [N-((4-(aminomethyl)phenyl)sulfonyl)-4-(1-(3-(pyrazin-2-yloxy)phenyl)ethoxy)-3-(trifluoromethyl)benzamide] |
| < 100 nM | CC(Oc1ccc(C(=O)NS(=O)(=O)N2CCN(C)CC2)c(Cl)c1Cl)c1cccc(Oc2ccccc2)c1 (racemic) [rac-(R)-2,3-dichloro-N-((4-methylpiperazin-1-yl)sulfonyl)-4-(1-(3-phenoxyphenyl)ethoxy)benzamide] |
| < 100 nM | CC(Oc1ccc(C(=O)NS(=O)(=O)c2ccc(CN)cc2)cc1C(F)(F)F)c1cccc(Oc2ccccn2)c1 (stereo not shown) [N-((4-(aminomethyl)phenyl)sulfonyl)-4-(1-(3-(pyridin-2-yloxy)phenyl)ethoxy)-3-(trifluoromethyl)benzamide] |
| < 100 nM | CC[C@@H](Oc1ccc(C(=O)NS(=O)(=O)c2ccc(O[C@H]3CCCN(C)C3)cc2)c(F)c1F)c1ccc(OCC2CC2)cn1 [4-((R)-1-(5-(cyclopropylmethoxy)pyridin-2-yl)propoxy)-2,3-difluoro-N-((4-(((S)-1-methylpiperidin-3-yl)oxy)phenyl)sulfonyl)benzamide] |
| < 100 nM | CCOc1ccc(C(CC)Oc2ccc(C(=O)NS(=O)(=O)c3ccc(OCCNC)cc3)cc2C(F)(F)F)nc1 (stereo not shown) [4-(1-(5-ethoxypyridin-2-yl)propoxy)-N-((4-(2-(methylamino)ethoxy)phenyl)sulfonyl)-3-(trifluoromethyl)benzamide] |
| < 100 nM | NCc1ccc(S(=O)(=O)NC(=O)c2ccc(OCc3cccc(Oc4ccccc4)c3)c(Cl)c2Cl)cc1 [N-((4-(aminomethyl)phenyl)sulfonyl)-2,3-dichloro-4-((3-phenoxybenzyl)oxy)benzamide] |
| < 100 nM | CC[C@@H](Oc1ccc(C(=O)NS(=O)(=O)N2CCN(CCCF)CC2)c(F)c1F)c1ccc(Oc2ccccn2)cn1 [(R)-2,3-difluoro-N-((4-(3-fluoropropyl)piperazin-1-yl)sulfonyl)-4-(1-(5-(pyridin-2-yloxy)pyridin-2-yl)propoxy)benzamide] |
| < 100 nM | CC(Oc1ccc(C(=O)NS(=O)(=O)c2ccc(CN)cc2)c(F)c1F)c1cccc(Oc2ccccc2)c1 (stereo not shown) [N-((4-(aminomethyl)phenyl)sulfonyl)-2,3-difluoro-4-(1-(3-phenoxyphenyl)ethoxy)benzamide] |
| < 100 nM | CC(Oc1ccc(C(=O)NS(=O)(=O)c2ccc(CN)cc2)c(Cl)c1Cl)c1cccc(Oc2ccccc2)c1 (racemic) [rac-(R)-N-((4-(aminomethyl)phenyl)sulfonyl)-2,3-dichloro-4-(1-(3-phenoxyphenyl)ethoxy)benzamide] |
